Entries after “also recorded” stand apart in the source; their conditions may differ.
Assays:
[1] = target: T1, DAT (Rattus norvegicus, UniProt P23977); test: Inhibition of [3H]WIN 35,428 binding to DAT
T1 construct: rat striatum was the source for DAT, and cerebral cortex for SERT and NET; from tissue; P2 synaptosomal fraction for uptake
Description: (§1) Biology. […] Briefly, rat striatum was the source for DAT, and cerebral cortex for SERT and NET. […] Test compounds were dissolved in dimethyl sulfoxide (DMSO) and diluted out in 10% (v/v) DMSO. […] At least five triplicate concentrations of each test compound were studied, spaced evenly around the IC50 value. For DAT uptake assays, uptake of 50 nM [^3H]DA into rat striatal synaptosomes was measured exactly as described by us previously. Briefly, rat striatal P2 membrane fractions were incubated with test compounds for 8 min followed by the additional presence of [^3H]DA for 4 min at 25?. […] Construction of inhibition curves and dissolvement of test compounds were as described above.

[2] = target: T1, DAT; test: Inhibition of [3H]DA uptake by DAT into rat striatal synaptosomes; type: biochemical; details: for IC50: read-out: DAT uptake, IC50 [3H]DA
Description: as §1

[3] = target: T2, SERT (Rattus norvegicus, UniProt P31652); test: SERT uptake inhibition, [3H]5-HT; type: biochemical; details: Table 4; for IC50: rat brain, read-out: SERT uptake, IC50 [3H]5-HT; for blockade of both SERT and NET (SNRI profile), in words: in vitro data
T2 construct: rat striatum was the source for DAT, and cerebral cortex for SERT and NET; from tissue; host or cells: rat cerebral cortex
T2 sequence (P31652 whole entry): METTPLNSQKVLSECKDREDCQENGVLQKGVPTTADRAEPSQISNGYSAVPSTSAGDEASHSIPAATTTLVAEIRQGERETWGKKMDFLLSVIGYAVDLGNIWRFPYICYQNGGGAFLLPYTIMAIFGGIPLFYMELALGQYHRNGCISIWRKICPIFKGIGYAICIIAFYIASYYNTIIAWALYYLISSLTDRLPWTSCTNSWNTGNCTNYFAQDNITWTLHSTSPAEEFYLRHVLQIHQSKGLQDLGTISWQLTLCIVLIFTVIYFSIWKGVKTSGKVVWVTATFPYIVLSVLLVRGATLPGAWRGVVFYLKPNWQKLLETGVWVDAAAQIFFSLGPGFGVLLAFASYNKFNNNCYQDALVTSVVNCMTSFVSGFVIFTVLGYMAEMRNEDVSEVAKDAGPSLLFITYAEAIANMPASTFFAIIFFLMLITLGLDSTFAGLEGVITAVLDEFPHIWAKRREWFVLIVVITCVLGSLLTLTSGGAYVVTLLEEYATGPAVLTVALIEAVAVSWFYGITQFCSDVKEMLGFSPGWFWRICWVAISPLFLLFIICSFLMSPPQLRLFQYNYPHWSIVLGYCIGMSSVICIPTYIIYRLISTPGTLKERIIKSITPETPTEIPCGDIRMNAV

[4] = target: T3, NET (Rattus norvegicus); test: NET uptake inhibition, [3H]NE; type: biochemical; details: Table 4; rat brain
T3 construct: from tissue
T3 sequence (Q63380 1-617): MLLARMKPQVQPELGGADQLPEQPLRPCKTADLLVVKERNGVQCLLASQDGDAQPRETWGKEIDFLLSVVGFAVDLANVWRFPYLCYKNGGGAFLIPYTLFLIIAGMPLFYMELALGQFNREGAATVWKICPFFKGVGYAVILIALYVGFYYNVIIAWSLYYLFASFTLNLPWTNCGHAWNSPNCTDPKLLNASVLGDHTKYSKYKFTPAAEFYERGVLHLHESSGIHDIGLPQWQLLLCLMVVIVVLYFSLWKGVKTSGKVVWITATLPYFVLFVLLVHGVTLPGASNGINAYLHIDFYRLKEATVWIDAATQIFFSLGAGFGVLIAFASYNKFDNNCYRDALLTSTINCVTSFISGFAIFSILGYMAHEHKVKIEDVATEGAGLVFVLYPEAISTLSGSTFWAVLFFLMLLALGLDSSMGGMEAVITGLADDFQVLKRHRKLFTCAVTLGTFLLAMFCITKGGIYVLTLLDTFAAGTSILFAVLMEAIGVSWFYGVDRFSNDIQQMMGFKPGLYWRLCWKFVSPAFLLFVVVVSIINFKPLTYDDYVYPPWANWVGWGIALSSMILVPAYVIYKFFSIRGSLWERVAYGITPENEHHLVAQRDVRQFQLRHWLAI

[5] = target: T2, SERT; test: Inhibition of [3H]citalopram binding to SERT; details: for IC50: Table 2, average ± SEM, read-out: SERT binding, IC50 [3H]citalopram; for SERT binding/DAT binding: Table 3, selectivity ratio of IC50 values
Description: as §1

[6] = target: NET (Rattus norvegicus, UniProt Q9WTR4); test: Inhibition of [3H]nisoxetine binding to NET; details: read-out: IC50 for the NET
Description: as §1

[7] = tested on: NET; test: Inhibition of [3H]nisoxetine binding to NET; set-up: species or system rat; details: Table 3; selectivity ratio of IC50 values
Description: as §1

[8] = Table 4, rat brain, read-out: DAT binding, IC50, [3H]Win 35,428

T1 sequence (P23977 whole entry): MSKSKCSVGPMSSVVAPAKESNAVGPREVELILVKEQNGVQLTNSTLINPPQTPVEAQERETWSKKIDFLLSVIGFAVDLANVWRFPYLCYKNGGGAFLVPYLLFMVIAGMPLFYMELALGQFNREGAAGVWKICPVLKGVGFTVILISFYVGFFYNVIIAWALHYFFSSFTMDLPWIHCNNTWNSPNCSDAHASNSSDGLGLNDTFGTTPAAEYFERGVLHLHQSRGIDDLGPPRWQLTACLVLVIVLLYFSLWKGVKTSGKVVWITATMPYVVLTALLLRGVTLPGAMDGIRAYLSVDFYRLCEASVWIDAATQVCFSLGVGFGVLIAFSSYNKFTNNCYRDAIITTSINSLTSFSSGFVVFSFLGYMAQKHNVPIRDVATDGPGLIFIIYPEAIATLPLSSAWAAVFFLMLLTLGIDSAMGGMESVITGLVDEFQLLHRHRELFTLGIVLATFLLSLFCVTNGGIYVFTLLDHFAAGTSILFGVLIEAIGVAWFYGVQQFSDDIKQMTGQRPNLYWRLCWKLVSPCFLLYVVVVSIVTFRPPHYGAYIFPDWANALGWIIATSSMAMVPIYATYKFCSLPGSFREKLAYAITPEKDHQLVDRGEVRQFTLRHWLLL

In the case of `O[C@H]1C[C@H](C(c2ccccc2)c2ccccc2)OC[C@@H]1NCCc1ccc(F)cc1` [(+)-29c, (2R,4S,5S)-2-benzhydryl-5-[2-(4-fluoro-phenyl)-ethylamino]-tetrahydropyran-4-ol], the IC50 [1, 8] is reported as 0.443 ± 0.052 µM, the IC50 ([2]; Table 4, rat brain) is reported as 0.218 ± 0.02 µM and the IC50 [3] is reported as 2.95 ± 0.38 µM. For the same compound, the IC50 [4] was 0.0773 ± 0.003 µM.
Work on `COc1ccc(CN[C@H]2C[C@H](C(c3ccccc3)c3ccccc3)OC[C@H]2O)cc1` [(+)-29g, (3S,4S,6R)-6-benzhydryl-4-(4-methoxy-benzylamino)-tetrahydropyran-3-ol] yielded an IC50 [1, 8] of 3.75 ± 0.62 µM, an IC50 ([2]; Table 4, rat brain) of 2.67 ± 0.26 µM and an IC50 [3] of 3.81 ± 0.46 µM. For the same compound, the IC50 [4] was 1.84 ± 0.58 µM.
Work on `O[C@@H]1CO[C@@H](C(c2ccccc2)c2ccccc2)C[C@@H]1NCc1ccccc1` [(+)-29h, (3S,4S,6R)-6-benzhydryl-4-benzylamino-tetrahydropyran-3-ol] yielded an IC50 [1, 8] of 1.25 ± 0.1 µM, an IC50 ([2]; Table 4, rat brain) of 0.962 ± 0.097 µM and an IC50 [3] of 4.42 ± 0.41 µM. It also gave an IC50 [4] of 3.22 ± 0.57 µM.
For `O[C@@H]1C[C@@H](C(c2ccccc2)c2ccccc2)OC[C@H]1NCCc1ccc(F)cc1` [(−)-29c, (2S,4R,5R)-2-benzhydryl-5-[2-(4-fluoro-phenyl)-ethylamino]-tetrahydropyran-4-ol], the IC50 [1, 8] was 1.05 ± 0.04 µM, the IC50 ([2]; Table 4, rat brain) was 0.427 ± 0.067 µM and the IC50 [3] was 3.57 ± 0.14 µM. The IC50 [4] was 0.439 ± 0.014 µM.
`COc1ccc(CN[C@@H]2CO[C@H](C(c3ccccc3)c3ccccc3)C[C@H]2O)c(OC)c1` [(−)-29e, (2S,4R,5R)-2-benzhydryl-5-(2,4-dimethoxy-benzylamino)-tetrahydropyran-4-ol] showed an IC50 [1, 8] of 1.06 µM, an IC50 ([2]; Table 4, rat brain) of 0.71 ± 0.13 µM and an IC50 [3] of 0.024 ± 0.004 µM. For the same compound, the “blockade of both SERT and NET (SNRI profile), in words” value (shortened to “blockade of both SERT and NET”) [3] was “dual transport blockers; also recorded: potent blockers for both SERT and NET” and the IC50 [4] was 0.115 ± 0.014 µM.
`COc1cc(CN[C@@H]2CO[C@H](C(c3ccccc3)c3ccccc3)C[C@H]2O)cc(OC)c1` [(−)-29f, (2S,4R,5R)-2-benzhydryl-5-(3,5-dimethoxy-benzylamino)-tetrahydropyran-4-ol] gave an IC50 [1, 8] of 0.298 ± 0.029 µM, an IC50 ([2]; Table 4, rat brain) of 0.135 ± 0.003 µM and an IC50 [3] of 0.0254 ± 0.002 µM. For the same compound, the “blockade of both SERT and NET” value [3] was “potent blockers for both SERT and NET”, the “blockade of both SERT and NET” value ([3]; listed as (−)29f) was “dual transport blockers” and the IC50 [4] was 0.108 ± 0.011 µM.
Compound `COc1ccc(CN[C@@H]2C[C@@H](C(c3ccccc3)c3ccccc3)OC[C@@H]2O)cc1` [(−)-29g, (3R,4R,6S)-6-benzhydryl-4-(4-methoxy-benzylamino)-tetrahydro-pyran-3-ol] has an IC50 [1, 8] of 0.771 ± 0.086 µM, an IC50 ([2]; Table 4, rat brain) of 0.822 ± 0.12 µM and an IC50 [3] of 1.07 ± 0.1 µM. The IC50 [4] was 0.765 ± 0.034 µM.
Compound `O[C@@H]1CO[C@H](C(c2ccccc2)c2ccccc2)C[C@H]1NCc1ccccc1` [(−)-29h, (3S,4R,6S)-6-benzhydryl-4-benzylamino-tetrahydropyran-3-ol] has an IC50 [1, 8] of 4.64 ± 1.03 µM, an IC50 ([2]; Table 4, rat brain) of 2.61 ± 0.14 µM and an IC50 [3] of 10 µM. The IC50 [4] was 0.336 ± 0.033 µM.
In the case of `c1ccc(C(c2ccccc2)C2CCC(NCc3c[nH]c4ccccc34)CO2)cc1` (stereo not drawn) [Compound 16f, Cis-(6-benzhydryl-tetrahydropyran-3-yl)-(3-indole-methyl)-amine], the IC50 ([1]; read-out: IC50 at the DAT) is reported as 0.794 µM, the IC50 [5] is reported as 2.59 µM and the “SERT binding/DAT binding” value [5] is reported as 3.3. For the same compound, the IC50 [6] was 1.86 µM and the “NET binding/DAT binding” value [7] was 2.3.
For `c1ccc(C(c2ccccc2)C2CCC(NCc3cc4ccccc4[nH]3)CO2)cc1` (stereo not drawn) [Compound 16g, Cis-(6-benzhydryl-tetrahydropyran-3-yl)-(2-indole-methyl)-amine], the “fold more active at DAT compared to the 3-substituted 16f” value [1] was 3.5 fold, the IC50 ([1]; read-out: IC50 at the DAT) was 0.227 µM and the IC50 [5] was 1.64 µM. The “SERT binding/DAT binding” value [5] was 7.2, the IC50 [6] was 0.401 µM and the “NET binding/DAT binding” value [7] was 1.8. For the same compound, the IC50 ([2]; Table 2, average ± SEM) was 0.135 ± 0.0475 µM and the “[3H]DA uptake/DAT binding” value ([2]; Table 3, ratio of IC50 values) was 0.60.
